Measured values: patent publication US20110275559A1, “Long-Acting Y2 and/or Y4 Receptor Agonists” (Novo Nordisk A/S, priority 2008, published 2011)
pEC50: −log10 of the molar value. Read-outs that look alike come from different tables or passages of the source. One block for each compound: values may come before it. *1 amine or outer side, *2 acyl side, *3 side chain or, on linkers, in order; H or OH if unused. Where a SMILES comes first, the peptide text is derived from it. Side-chain parts run from the residue outwards. The star is where a group is joined. C20 diacid = O=C(O)CCCCCCCCCCCCCCCCCCC(=O)*; C18 diacid = O=C(O)CCCCCCCCCCCCCCCCC(=O)*; γGlu = O=C(O)[C@H](CCC(=O)[*:2])N[*:1]; Trx = NC[C@H]1CC[C@H](C(=O)O)CC1; AEEA = NCCOCCOCC(=O)O

What was measured:
[1] = molecular target: T1, Y4 receptor (Homo sapiens, UniProt P50391); assay: Y4 receptor ACTOne based FLIPR assay (cAMP biosensor); assay type: cell-based
T1 construct: host or cells: ACTOne HEK-293 cells
Source text: (§1) ACTOne™ is an easily scaleable cAMP biosensor HTS platform for measurement of Gs and Gi coupled 7™ receptor signalling from BD Biosciences (San Jose, Calif.). The cells express a biosensor developed around a modified rat olfactory cyclic nucleotide gated (CNG) calcium channel—a fairly non-discriminatory ion channel that responds to cAMP and cGMP. The CNG has been engineered to be cAMP selective and thus function as a cAMP responsive biosensor that signals through calcium or membrane potential responsive dyes. Y2 or Y4 receptor expressing ACTOne HEK-293 cells are obtained from BD Biosciences. The cells are loaded with a calcium responsive dye that only distributes in the cytoplasm. Probenecid, an inhibitor of the organic anion transporter is added to prevent the dye from leaving the cell. A phosphodiesterase inhibitor is added to prevent formatted cAMP from being degraded. Isoproterenol (an β1/β2 agonist) is added to activate the adenylate cyclase. When an Y2 or Y4 receptor agonist is added, the adenylate cyclase is inactivated. The decreased calcium concentration in the cytoplasm is then detected as an increase in fluorescence. Together with the test substance, Isoproterenol at a concentration matching EC80, is added to all wells. • The cells are plated out in Greiner 384-well plates. […] The plates are covered with tinfoil to avoid light (the dye can be excited by the daylight, which results in higher baseline and variation). • The FLIPR (FLIPRtetra from Molecular Devices, CA, USA) adds 1 μl sample and 1 μl isoproterenol (0.05 μM final concentration) at the same time. • The fluorescence signal from the wells is measured 330 seconds after sample addition on the FLIPR.

[2] = molecular target: T2, Y2 receptor (Homo sapiens, UniProt P49146); assay: Y2 receptor ACTOne based FLIPR assay (cAMP biosensor); assay type: cell-based
T2 construct: host or cells: ACTOne HEK-293 cells
T2 sequence (P49146 1-381): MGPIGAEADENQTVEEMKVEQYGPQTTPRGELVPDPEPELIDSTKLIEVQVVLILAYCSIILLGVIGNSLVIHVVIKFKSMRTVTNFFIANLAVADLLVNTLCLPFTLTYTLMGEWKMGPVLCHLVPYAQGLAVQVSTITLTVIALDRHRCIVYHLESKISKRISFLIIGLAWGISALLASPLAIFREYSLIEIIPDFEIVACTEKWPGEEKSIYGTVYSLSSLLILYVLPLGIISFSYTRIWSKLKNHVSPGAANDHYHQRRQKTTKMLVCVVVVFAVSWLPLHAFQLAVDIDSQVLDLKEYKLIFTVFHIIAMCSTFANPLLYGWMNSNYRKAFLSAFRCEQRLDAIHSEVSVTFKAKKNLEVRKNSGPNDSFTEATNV
Source text: as §1

[3] = Mini-pig PK assay (plasma half-life); settings: Göttingen, minipig, iv
Method in brief: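 Catheterised mini-pigs received compound i.v. at 10 nmol/kg in pH 4.0 phosphate/NaCl/tween vehicle, or alternatively i.v. or s.c. at 1–30 nmol/kg in pH 8.0 K2HPO4/tween. Stabilised plasma was sampled up to 13 days and assayed by LC-MS (LLOQ 2 nM). Half-life came from non-compartmental analysis of individual animal profiles.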

T1 sequence (P50391 whole entry): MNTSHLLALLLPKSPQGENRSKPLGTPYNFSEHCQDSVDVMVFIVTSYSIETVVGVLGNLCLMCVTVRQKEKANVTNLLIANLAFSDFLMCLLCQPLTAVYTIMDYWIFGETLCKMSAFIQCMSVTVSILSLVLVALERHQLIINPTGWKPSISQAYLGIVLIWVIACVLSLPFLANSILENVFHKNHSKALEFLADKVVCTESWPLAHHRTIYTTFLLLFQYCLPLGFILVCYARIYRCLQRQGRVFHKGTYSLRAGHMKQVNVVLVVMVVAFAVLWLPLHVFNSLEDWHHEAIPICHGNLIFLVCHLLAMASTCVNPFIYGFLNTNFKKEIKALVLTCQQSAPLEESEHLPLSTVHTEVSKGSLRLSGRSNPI

SMILES: CC(C)C[C@H](NC(=O)[C@H](CCC(N)=O)NC(=O)[C@H](CCC(=O)O)NC(=O)[C@@H]1CCCN1C(=O)[C@H](CCCCNC(=O)COCCOCCNC(=O)COCCOCCNC(=O)CC[C@H](NC(=O)[C@H]1CC[C@H](CNC(=O)CCCCCCCCCCCCCCCCCCC(=O)O)CC1)C(=O)O)NC(=O)[C@H](C)NC(=O)[C@H](CC(N)=O)NC(=O)[C@H](CC(=O)O)NC(=O)CNC(=O)[C@@H]1CCCN1C(=O)[C@H](Cc1ccc(O)cc1)NC(=O)[C@@H](NC(=O)[C@@H]1CCCN1C(=O)[C@H](CCC(=O)O)NC(=O)[C@H](CC(C)C)NC(=O)[C@@H]1CCCN1C(=O)[C@H](C)N)C(C)C)C(=O)N[C@@H](C)C(=O)N[C@@H](CCC(N)=O)C(=O)N[C@@H](Cc1ccc(O)cc1)C(=O)N[C@@H](C)C(=O)N[C@@H](C)C(=O)N[C@@H](CC(=O)O)C(=O)N[C@@H](CC(C)C)C(=O)N[C@@H](CCCNC(=N)N)C(=O)N[C@@H](CCCNC(=N)N)C(=O)N[C@@H](Cc1ccc(O)cc1)C(=O)N[C@@H](CC(C)C)C(=O)N[C@@H](CC(N)=O)C(=O)N[C@H](C(=O)N[C@@H](CC(C)C)C(=O)N[C@H](C(=O)N[C@@H](CCCNC(=N)N)C(=O)N[C@@H](CCC(N)=O)C(=O)N[C@@H](CCCNC(=N)N)C(=O)N[C@@H](Cc1ccc(O)cc1)C(N)=O)[C@@H](C)O)C(C)C [SEQ ID NO: 15, N-epsilon13-[2-(2-{2-[2-(2-{2-[(S)-4-Carboxy-4-({trans-4-[(19-carboxynonadecanoylamino)methyl]cyclohexanecarbonyl}amino)butyrylamino]-eth-oxy}ethoxy)acetylamino]ethoxy}ethoxy)acetyl][Lys13,Leu17,Leu28,Val30,Gln34]hPP(1-36)] (H-APLEPVYPGDNAK([AEEA-AEEA-γGlu-Trx-C20 diacid])PEQLAQYAADLRRYLNVLTRQRY-NH2; N-terminus and C-terminus assumed)
pEC50 [1]: 8.15

SMILES: CC[C@H](C)[C@H](NC(=O)[C@H](Cc1ccc(O)cc1)NC(=O)[C@H](CCCNC(=N)N)NC(=O)[C@H](CCCNC(=N)N)NC(=O)[C@H](CC(C)C)NC(=O)[C@H](CC(=O)O)NC(=O)[C@H](C)NC(=O)[C@H](C)NC(=O)[C@H](Cc1ccc(O)cc1)NC(=O)[C@H](CCC(N)=O)NC(=O)[C@H](C)NC(=O)[C@H](CC(C)C)NC(=O)[C@H](CCC(N)=O)NC(=O)[C@H](CCC(=O)O)NC(=O)[C@@H]1CCCN1C(=O)[C@H](CCCCNC(=O)COCCOCCNC(=O)COCCOCCNC(=O)CC[C@H](NC(=O)[C@H]1CC[C@H](CNC(=O)CCCCCCCCCCCCCCCCCCC(=O)O)CC1)C(=O)O)NC(=O)[C@H](C)NC(=O)[C@H](CC(N)=O)NC(=O)[C@H](CC(=O)O)NC(=O)CNC(=O)[C@@H]1CCCN1C(=O)[C@H](Cc1ccc(O)cc1)NC(=O)[C@@H](NC(=O)[C@@H]1CCCN1C(=O)[C@H](CCC(=O)O)NC(=O)[C@H](CC(C)C)NC(=O)[C@@H]1CCCN1C(=O)[C@H](C)N)C(C)C)C(=O)N[C@@H](CC(N)=O)C(=O)N[C@H](C(=O)N[C@@H](CC(C)C)C(=O)N[C@H](C(=O)N[C@@H](CCCNC(=N)N)C(=O)N[C@@H](CCC(N)=O)C(=O)N[C@@H](CCCNC(=N)N)C(=O)N[C@@H](Cc1ccc(O)cc1)C(N)=O)[C@@H](C)O)C(C)C [SEQ ID NO: 17, N-epsilon13-[2-(2-{2-[2-(2-{2-[(S)-4-Carboxy-4-({trans-4-[(19-carboxynonadecanoylamino)methyl]cyclohexanecarbonyl}amino)butyrylamino]-ethoxy}ethoxy)acetylamino]ethoxy}ethoxy)acetyl][Lys13,Leu17,Val30,Gln34]hPP(1-36)] (H-APLEPVYPGDNAK([AEEA-AEEA-γGlu-Trx-C20 diacid])PEQLAQYAADLRRYINVLTRQRY-NH2; N-terminus and C-terminus assumed)
pEC50 [1]: 8.15

SMILES: CC[C@H](C)[C@H](NC(=O)[C@H](Cc1ccc(O)cc1)NC(=O)[C@H](CCCNC(=N)N)NC(=O)[C@H](CCCNC(=N)N)NC(=O)[C@H](CC(C)C)NC(=O)[C@H](CC(=O)O)NC(=O)[C@H](C)NC(=O)[C@H](C)NC(=O)[C@H](Cc1ccc(O)cc1)NC(=O)[C@H](CCC(N)=O)NC(=O)[C@H](C)NC(=O)[C@H](CC(C)C)NC(=O)[C@H](CCC(N)=O)NC(=O)[C@H](CCC(=O)O)NC(=O)[C@@H]1CCCN1C(=O)[C@@H](NC(=O)[C@H](C)NC(=O)[C@H](CCCCNC(=O)COCCOCCNC(=O)COCCOCCNC(=O)CC[C@H](NC(=O)[C@H]1CC[C@H](CNC(=O)CCCCCCCCCCCCCCCCCCC(=O)O)CC1)C(=O)O)NC(=O)[C@H](CC(=O)O)NC(=O)CNC(=O)[C@@H]1CCCN1C(=O)[C@H](Cc1ccc(O)cc1)NC(=O)[C@@H](NC(=O)[C@@H]1CCCN1C(=O)[C@H](CCC(=O)O)NC(=O)[C@H](CC(C)C)NC(=O)[C@@H]1CCCN1)C(C)C)[C@@H](C)O)C(=O)N[C@@H](CC(N)=O)C(=O)N[C@@H](CC(C)C)C(=O)N[C@@H](CC(C)C)C(=O)N[C@H](C(=O)N[C@@H](CCCNC(=N)N)C(=O)N1CCC[C@H]1C(=O)N[C@@H](CCCNC(=N)N)C(=O)N[C@@H](Cc1ccc(O)cc1)C(N)=O)[C@@H](C)O [SEQ ID NO: 29, N-epsilon11-[2-(2-{2-[2-(2-{2-[(S)-4-Carboxy-4-({trans-4-[(19-carboxynonadecanoylamino)methyl]cyclohexanecarbonyl}amino)butyrylamino]-ethoxy}ethoxy)acetylamino]ethoxy}ethoxy)acetyl][Lys11,Leu17,Leu30]hPP2-36] (H-PLEPVYPGDK([AEEA-AEEA-γGlu-Trx-C20 diacid])ATPEQLAQYAADLRRYINLLTRPRY-NH2; N-terminus and C-terminus assumed)
pEC50 [2]: < 6.00 | pEC50 [1]: 8.70 | half-life ([3]; in vivo, 1 nmol/kg): 23 h | half-life ([3]; in vivo, 30 nmol/kg): 27 h

pEC50 ([2]; Table 2, PP analogues, ACTOne HEK-293 cells, read-out: Y2 cAMP EC50): < 6.00 | pEC50 ([1]; Table 2, PP analogues, ACTOne HEK-293 cells, read-out: Y4 cAMP EC50): 9.00 | half-life ([3]; […]): 22 h
SMILES: CC[C@H](C)[C@H](NC(=O)[C@H](Cc1ccc(O)cc1)NC(=O)[C@H](CCCNC(=N)N)NC(=O)[C@H](CCCNC(=N)N)NC(=O)[C@H](CC(C)C)NC(=O)[C@H](CC(=O)O)NC(=O)[C@H](C)NC(=O)[C@H](C)NC(=O)[C@H](Cc1ccc(O)cc1)NC(=O)[C@H](CCC(N)=O)NC(=O)[C@H](C)NC(=O)[C@H](CC(C)C)NC(=O)[C@H](CCC(N)=O)NC(=O)[C@H](CCC(=O)O)NC(=O)[C@@H]1CCCN1C(=O)[C@@H](NC(=O)[C@H](C)NC(=O)[C@H](CCCCNC(=O)COCCOCCNC(=O)COCCOCCNC(=O)CC[C@H](NC(=O)CCCCCCCCCCCCCCCCC(=O)O)C(=O)O)NC(=O)[C@H](CC(=O)O)NC(=O)CNC(=O)[C@@H]1CCCN1C(=O)[C@H](Cc1ccc(O)cc1)NC(=O)[C@@H](NC(=O)[C@@H]1CCCN1C(=O)[C@H](CCC(=O)O)NC(=O)[C@H](CC(C)C)NC(=O)[C@@H]1CCCN1)C(C)C)[C@@H](C)O)C(=O)N[C@@H](CC(N)=O)C(=O)N[C@@H](CC(C)C)C(=O)N[C@@H](CC(C)C)C(=O)N[C@H](C(=O)N[C@@H](CCCNC(=N)N)C(=O)N1CCC[C@H]1C(=O)N[C@@H](CCCNC(=N)N)C(=O)N[C@@H](Cc1ccc(O)cc1)C(N)=O)[C@@H](C)O [SEQ ID NO: 30, N-epsilon11-[2-(2-{2-[2-(2-{2-[(S)-4-Carboxy-4-(17-carboxyheptadecanoylamino)butyrylamino]ethoxy}ethoxy)acetylamino]-ethoxy}ethoxy)acetyl][Lys11,Leu17,Leu30]hPP2-36] (H-PLEPVYPGDK([AEEA-AEEA-γGlu-C18 diacid])ATPEQLAQYAADLRRYINLLTRPRY-NH2; N-terminus and C-terminus assumed)
